Earlier results as cited in patent US20190336443A1 (Navinta III Inc, priority 2018, published 2019).

Experiments:
[1] = all animal species with adequate studies (rodents and rabbits)
[2] = pH sensitive

In the case of `NC(=O)c1ncn([C@@H]2O[C@H](CO)[C@@H](O)[C@H]2O)n1` [Ribavirin, 1-beta-D-ribofuranosyl-1H-1,2,4-triazole-3-carboxamide], the solubility in ethanol is listed as “slight solubility”, the “teratogenic and/or embryocidal potential” value [1] is listed as “significant teratogenic and/or embryocidal potential” and the “degradation in a liquid formulation” value [2] is listed as “readily degraded by hydrolysis”.
